Values quoted from earlier work in patent US12673009B2, “Dental material” (King's College London, priority 2020, dated 2026).

Legend:
[1] = Tylkowski et al., 2013

## [Li] [lithium]
[1]
  lithium concentration reported to be toxic: ~700 ppm
other
  safe therapeutic range of blood levels for patients on lithium therapies: 4.2-8.3 ppm
